Measurements: ChEMBL document CHEMBL5038613, “Synthesis, functional proteomics and biological evaluation of new 5-pyrazolyl ureas as potential anti-angiogenic compounds” (Eur J Med Chem, 2021)
Active and inactive are the calls of the source. No cut-off for these calls is given here.

Legend:
CCRF-CEM = assay: Antiproliferative activity against human CCRF-CEM cells assessed as inhibition of cell growth at 10 uM; format: functional; set-up: scale not given: the % may be the effect or the level left
NCI-H522 = assay: Antiproliferative activity against human NCI-H522 cells assessed as inhibition of cell growth at 10 uM; format: functional; set-up: scale not given: the % may be the effect or the level left
K562 = assay: Antiproliferative activity against human K-562 cells assessed as inhibition of cell growth at 10 uM; format: functional; set-up: scale not given: the % may be the effect or the level left
RPMI-8226 = assay: Antiproliferative activity against human RPMI-8226 cells assessed as inhibition of cell growth at 10 uM; format: functional; set-up: scale not given: the % may be the effect or the level left
M14 = assay: Antiproliferative activity against human M14 cells assessed as inhibition of cell growth at 10 uM; format: functional; set-up: scale not given: the % may be the effect or the level left
[1] = (§1) Antiproliferative activity against HUVEC assessed as inhibition of cell growth at 10 uM measured after 24 hrs by EdU incorporation based fluorescence microscopic analysis; format: toxicity; details: human, HUVEC cells, read-out: Activity
[2] = (§2) Antiproliferative activity against HUVEC assessed as inhibition of cell growth at 20 uM measured after 24 hrs by EdU incorporation based fluorescence microscopic analysis; format: toxicity; details: human, HUVEC cells, read-out: Activity
HUVEC [3] = assay: Antiproliferative activity against HUVEC assessed as inhibition of cell growth at 100 uM measured after 24 hrs by EdU incorporation based fluorescence microscopic analysis; format: toxicity; details: human
HUVEC [4] = assay: Anti-angiogenic activity against HUVEC cells assessed as decrease in ERK phosphorylation level at 20 uM preincubated for 10 mins followed by VEGF addition and measured after 20 mins by western blot analysis; format: functional, cell-based; details: Homo sapiens, time 30.0 min
HUVEC [5] = assay: Anti-angiogenic activity against HUVEC cells assessed as decrease in ERK phosphorylation level at 20 uM preincubated for 10 mins followed by VEGF addition and measured after 20 mins in presence of Na3VO4 by western blot analysis; format: functional, cell-based; details: Homo sapiens, time 30.0 min
HUVEC [6] = assay: Anti-angiogenic activity against HUVEC cells assessed as effect on SRC phosphorylation at 20 uM preincubated for 10 mins followed by VEGF addition and measured after 20 mins by western blot analysis; format: functional, cell-based; details: Homo sapiens, time 30.0 min
HUVEC [7] = assay: Effect on MAPK1 expression level in HUVEC cells at 100 uM by western blot analysis; format: functional, cell-based; details: Homo sapiens
HUVEC [8] = assay: Effect on PP1gamma expression level in HUVEC cells at 1 uM by western blot analysis; format: functional, cell-based; details: Homo sapiens
HL-60(TB) = assay: Antiproliferative activity against human HL-60(TB) cells assessed as inhibition of cell growth at 10 uM; format: functional; set-up: scale not given: the % may be the effect or the level left
HCT-116 = assay: Antiproliferative activity against human HCT-116 cells assessed as inhibition of cell growth at 10 uM; format: functional; set-up: scale not given: the % may be the effect or the level left
SK-MEL-2 = assay: Antiproliferative activity against human SK-MEL-2 cells assessed as inhibition of cell growth at 10 uM; format: functional; set-up: scale not given: the % may be the effect or the level left
SK-MEL-5 = assay: Antiproliferative activity against human SK-MEL-5 cells assessed as inhibition of cell growth at 10 uM; format: functional; set-up: scale not given: the % may be the effect or the level left
HUVEC [9] = assay: as §1; format: toxicity; details: human, huvec, 24 h, 10 µM
HUVEC [10] = assay: as §2; format: toxicity; details: human, huvec, 24 h, 20 µM

SMILES: CCCC(O)Cn1ncc(C(=O)OCC)c1NC(=O)NCc1cccc(C(F)(F)F)c1 (configuration not stated)
- Activity (CCRF-CEM): 100%
- Activity (NCI-H522): 54%
- Activity (K562): 53%
- Activity (RPMI-8226): 53%
- Activity (M14): 42%
- inhibition at 24 h, 10 µM [1]: 20%
- inhibition at 24 h, 20 µM [2]: 30%
- Activity (HUVEC [3]): Toxic
- Activity (HUVEC [4]): Active
- Activity (HUVEC [5]): inactive
- Activity (HUVEC [6]): inactive
- Activity (HUVEC [7]): Active
- Activity (HUVEC [8]): Active

SMILES: CCCC(O)Cn1ncc(C(=O)OCC)c1NC(=O)NCc1ccc(C(F)(F)F)cc1 (configuration not stated)
- Activity (HL-60(TB)): 60%
- Activity (CCRF-CEM): 60%
- Activity (NCI-H522): 50%
- Activity (K562): 65%
- Activity (RPMI-8226): 74%
- Activity (HCT-116): 59%
- Activity (SK-MEL-2): 49%
- Activity (SK-MEL-5): 59%

SMILES: CCCC(O)Cn1ncc(C(=O)OCC)c1NC(=O)NCc1ccccc1C(F)(F)F (configuration not stated)
- Activity (NCI-H522): 59%

SMILES: CCOC(=O)c1cnn(CC(C)O)c1NC(=O)NCc1ccccc1F (configuration not stated)
- Activity (HL-60(TB)): 44%

SMILES: CCOC(=O)c1cnn(CC(O)CC)c1NC(=O)NCc1ccc(C(F)(F)F)cc1 (configuration not stated)
- Activity (NCI-H522): 40%

SMILES: CCOC(=O)c1cnn(CC(C)O)c1NC(=O)NCc1ccccc1C(F)(F)F (configuration not stated)
- Activity (HL-60(TB)): 42%

SMILES: CCCC(O)Cn1ncc(C(=O)OCC)c1NC(=O)NCc1ccc(F)cc1 (configuration not stated)
- Activity (NCI-H522): 53%

SMILES: CCOC(=O)c1cnn(CC(C)O)c1NC(=O)NCc1cccc(F)c1 (configuration not stated)
- Activity (CCRF-CEM): 100%

SMILES: CCOC(=O)c1cnn(CC(C)O)c1NC(=O)NCc1ccc(F)cc1 (configuration not stated)
- Activity (HL-60(TB)): 53%

SMILES: CCCC(O)Cn1ncc(C(=O)OCC)c1NC(=O)Nc1cccc(C(F)(F)F)c1 (configuration not stated)
- Activity (HUVEC [9]): Non-Toxic
- Activity (HUVEC [10]): Non-Toxic
- Activity (HUVEC [3]): Toxic
- Activity (HUVEC [4]): inactive
- Activity (HUVEC [5]): inactive
- Activity (HUVEC [6]): inactive

SMILES: CCOC(=O)c1cnn(CC(O)CC)c1NC(=O)NCc1cccc(F)c1 (configuration not stated)
- Activity (NCI-H522): 40%

SMILES: CCCC(O)Cn1ncc(C(=O)OCC)c1NC(=O)NCc1cccc(F)c1 (configuration not stated)
- Activity (HL-60(TB)): 41%
- Activity (NCI-H522): 42%
- Activity (HUVEC [9]): Non-Toxic
- Activity (HUVEC [10]): Non-Toxic
- Activity (HUVEC [3]): Toxic
- Activity (HUVEC [4]): inactive

SMILES: CCCC(O)Cn1ncc(C(=O)OCC)c1NC(=O)NCc1ccccc1F (configuration not stated)
- Activity (NCI-H522): 44%
